The values that follow come from PubChem BioAssay (NCI).

SMILES strings stand for the structures.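 Grown in 96-well plates, cells were treated for 48 hours with each compound at five concentrations. Insufficient inhibition: endpoint recorded as highest concentration tested. GI50 marks 50% less growth. Definition used: TGI = concentration required for complete inhibition of growth.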 Where only a bound is given, the exact number is not on record here.

The TGI is the concentration at which net growth stops. One may read the GI50 as the concentration that inhibits growth by half.

Holding throughout (experiment): DTP human tumour cell line panel, 48 h
The test system of test [1] is M19-MEL melanoma.
Test [2] has as its system DMS 273 small cell lung.
Test [3] deals with KM20L2 colon.
Test [4] has as its system MDA-N.
For test [5], the system named is HS 578T breast.
For test [6], the system named is MDA-MB-231 breast.
Test [7] relates to DU-145 prostate.
The test system of test [8] is MCF7 breast.
Test [9] deals with RXF-631 renal.

As to `c1cnc2c(c1)-n1cccc1C1(CCSCC1)NN2`, the TGI in test [1] and in test [2] was above 100 µM each time.

For `COc1cc(-c2cc(=O)c3cc4c(cc3[nH]2)OCO4)cc(OC)c1OC`, in [3], the GI50 is above 100 µM. Moreover, the TGI in [3], in test [1] and in [2] was above 100 µM in each case.

In the case of `CCCC(=O)c1c(NOC2OC(COC(C)=O)C(OC(C)=O)C(OC(C)=O)C2OC(C)=O)nc(OC)n(C)c1=O` (stereo unspecified), the TGI in [3], in [1] and in test [2] was above 100 µM in each case.

Turning to `COc1ccc(-c2c(C3=NCCN3)nnn2-c2ccccc2)cc1`, the TGI in test [3], in [1] and in test [2] was above 100 µM in each case.

In the case of `CC(=O)CC1CCC(=O)CCC(=O)OC(CC(C)=O)CCC(=O)CCC(=O)O1` (stereo unspecified), the concentration for total growth inhibition (TGI) in test [4], in test [5], in test [6], in [7] and in test [8] was above 100 µM each time.

With `Cc1nn(C(=O)c2ccccc2O)c2c1C(c1ccccc1)SC(N)=N2` (stereo unspecified), the TGI in [4], in [5], in [6], in [7] and in test [8] was above 10 µM in each case.

For the molecule `Cc1c(CCCl)c(=O)n2c([nH]c3ccccc32)c1C#N`, the TGI in [4] is 3.33 µM; in [5], 4.89 µM; in [6] it was 3.09 µM; in test [7], 5.63 µM; in [8] it was above 10 µM.

Turning to `Nc1ccc(C(=O)N/C(=C\C=C\c2ccco2)c2nc3[nH]c(=S)[nH]c(=O)c3[nH]2)cc1`, the TGI in test [9], in test [3], in test [1] and in [2] was above 100 µM each time.

Regarding `CCN(CC)CCC1CC/C(=C\c2ccc(OC)cc2)C1=O` (stereo unspecified), the results for the TGI in test [3], in test [1] and in [2] were 78.3 µM, above 100 µM and above 100 µM, respectively.

`COC1=CC23C=CC1[C@@H](c1ccccc1)C2=C(C)C(=O)N3C(=O)NC1CCCCC1` (stereo partly specified) showed a total growth inhibition concentration (TGI) in [3] of 50.7 µM.

For `O=C(Nc1ccccc1)c1ccc(Cl)c([N+](=O)[O-])c1`, the TGI in [3] turned out to be 47.5 µM; in test [1], 34.3 µM; in [2], 14.2 µM.

Regarding `CC(=O)O[C@H]1C(N(C)C(=O)c2ccccc2)CC[C@]2(C)C3CC[C@@]4(C)C(CC(O)[C@@H]4C(C)N(C)C)[C@@H]3CCC12` (stereo partly specified), the TGI in [3], in [1] and in test [2] was above 100 µM each time.

In the case of `NC(N)=N/N=C(/c1nc2ccc([N+](=O)[O-])cc2[nH]c1=O)C(O)c1ccco1` (stereo unspecified), the TGI in test [3], in [1] and in test [2] was above 100 µM throughout.

In the case of `C=CCNC(=S)N1CC(C)C(=O)Nc2ccccc21` (stereo unspecified), the TGI in test [3] and in [2] was above 100 µM each time.

On to `CC(=O)NC1=N/C(=C/c2cc([N+](=O)[O-])ccc2O)CN1C`, for which the TGI in test [4], in test [6], in test [7] and in [8] was above 100 µM throughout.

On to `CCN(CC)c1ccc(N=Nc2ccc(-c3nc4cccnc4o3)cc2)cc1`, for which the total growth inhibition concentration (TGI) in [3], in test [1] and in test [2] was above 100 µM each time.

`CC1(C)C2CC(c3ccncc3)ON2C(C)(C)N1O` (stereo unspecified): the TGI in test [4], in test [5], in test [6], in test [7] and in test [8] was above 100 µM in each case.

For `CN1CCN(CCSC2Cc3cc(Cl)ccc3Sc3ccccc32)CC1` (stereo unspecified), the concentration for total growth inhibition (TGI) in [3] was determined as 4.08 µM; in [1] it was 4.16 µM; in test [2], 4.28 µM.

Regarding `O=C(C(O)c1cn(Cc2ccccc2)c2ccccc12)N1CCCCC1` (stereo unspecified), the TGI in test [3], in test [1] and in [2] was above 100 µM each time.

For `COc1ccc(NC(=O)C2C(=O)N(c3ccc(OC)cc3)C(=O)/C2=N/O)cc1` (stereo unspecified), the figures for the TGI in [3], in test [1] and in test [2] were above 100 µM, 61.1 µM and above 81.1 µM, respectively.

`CC(=O)Oc1cc(C)ccc1[C@]1(C)CC[C@H](C)/C1=C\Br`: the GI50 in test [4] was 2.36 µM; in [5] it was 3.03 µM; in [6] it was 9.04 µM; in test [7], 4.87 µM; in test [8], 4.07 µM. In addition, the TGI in test [4] is 7.16 µM; in test [5], 13.9 µM; in [6], 23.9 µM; in test [7] it was 16.9 µM; in test [8], 15.3 µM.

Turning to `O=c1oc2ccccc2c(O)c1/C=N\c1nc(-c2ccccc2)cs1`, the TGI was 16 µM in test [4]; 89.7 µM in test [5]; 54.8 µM in test [6]; 30.8 µM in test [7]; 14.1 µM in [8].

In the case of `O=c1cc(-c2ccccc2)[nH]c2cc(Cl)cc(Cl)c12`, the concentration for total growth inhibition (TGI) in [1] and in test [2] was above 100 µM each time.

With `Cc1cc2nc3c(=O)n(C)c(=O)nc-3n(-c3ccc(Cl)cc3)c2cc1C`, the concentration for total growth inhibition (TGI) was 26.1 µM in test [3], 5.74 µM in [1] and 20.6 µM in test [2].

Consider `N#CCCc1nc2ccc(Br)cc2c(=O)n1CCO`, for which the TGI in test [9] and in test [1] was above 100 µM each time.

In the case of `COP1(=O)CC2C(Cl)(Cl)C2(C)C1` (stereo unspecified), the total growth inhibition concentration (TGI) in test [3], in test [1] and in test [2] was above 100 µM each time.

Consider `C[CH2][Sn]1([CH2]C)[O]C(=O)[O][Sn]([CH2]C)([CH2]C)[O]1`, for which the GI50 in [3] was 31.6 µM; in test [1] it was 18.5 µM; in test [2], 59.4 µM. For the same molecule, the concentration for total growth inhibition (TGI) in [3] was above 87.7 µM; in test [1], 37.9 µM; in test [2] it was above 100 µM.

For the molecule `Oc1ccc(N=Nc2ccc(Cl)cc2)cc1`, the concentration for total growth inhibition (TGI) in test [4] came to 30.6 µM; in test [5], 73.3 µM; in [6], 24.3 µM; in test [7], 30.8 µM; in test [8], 35.9 µM.

Regarding `O=C(Oc1ccc(O)c2c(=O)n3c(cc12)[nH]c1ccccc13)c1ccccc1`, the GI50 was 41.1 µM in test [5], 6.22 µM in test [6], 30.5 µM in test [7] and 74.1 µM in test [8]. Further, the TGI in [5] is above 100 µM; in test [6] it was 42.1 µM; in [7], above 100 µM; in [8], above 100 µM.
